Experimental data reported in US9718819B2 (Merck Sharp & Dohme Corp., priority 2012, dated 2017).

Each molecule was assayed against HIV-1 RT wild-type enzyme (Human immunodeficiency virus type 1 group M subtype B (isolate HXB2) (HIV-1), UniProt P04585) (assay: HIV-1 reverse transcriptase inhibitory activity (RT polymerase assay)). Details: not given.
Assay type: biochemical
In short: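 Enzyme and compound were preincubated 30 min at room temperature, then RNA/DNA hybrid (16.6 nM final; HCV-derived RNA, biotinylated primer) plus 2 μM dNTPs and 66.6 nM Ru-dUTP added, 90 min at 37 °C. Avidin capture and ECL counting; percent inhibition relative to DMSO (0%) and 1 μM efavirenz (100%), four-parameter IC50 fit.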

Compound	IC50 [nM]
N#Cc1cc(Cl)cc(Oc2c(C(F)(F)F)ncn(Cc3cc(CO)c(=O)[nH]n3)c2=O)c1 [Example 12, 3-chloro-5-((1-((5-(hydroxymethyl)-6-oxo-1,6-dihydropyridazin-3-yl)methyl)-6-oxo-4-(trifluoromethyl)-1,6-dihydropyrimidin-5-yl)oxy)benzonitrile]	32

Same assay, conditions: HIV-1 RT wild-type enzyme 83 pM; RNA-dependent DNA polymerase activity; read-out: IC50

Compound	IC50 [nM]
N#Cc1cc(Oc2c(C(F)(F)F)ncn(Cc3ccc(=O)[nH]n3)c2=O)cc(OC(F)F)c1 [Example 163, 3-(difluoromethoxy)-5-(6-oxo-1-((6-oxo-1,6-dihydropyridazin-3-yl)methyl)-4-(trifluoromethyl)-1,6-dihydropyrimidin-5-yloxy)benzonitrile]	22
N#Cc1cc(Cl)cc(Oc2c(C(F)(F)F)ncn(Cc3cnc(-c4ccc(Cl)nc4)[nH]c3=O)c2=O)c1 [Example 152, 3-chloro-5-((1-((2-(6-chloropyridin-3-yl)-6-oxo-1,6-dihydropyrimidin-5-yl)methyl)-6-oxo-4-(trifluoromethyl)-1,6-dihydropyrimidin-5-yl)oxy)benzonitrile]	32
N#Cc1cc(Cl)cc(Oc2c(C(F)(F)F)ncn(Cc3cc(-c4ccc(OC(F)(F)F)cc4)n[nH]c3=O)c2=O)c1 [Example 116, 3-chloro-5-((6-oxo-1-((3-oxo-6-(4-(trifluoromethoxy)phenyl)-2,3-dihydropyridazin-4-yl)methyl)-4-(trifluoromethyl)-1,6-dihydropyrimidin-5-yl)oxy)benzonitrile]	21
N#Cc1cc(Cl)cc(Oc2c(C(F)(F)F)ncn(Cc3cc(-c4ccc(OC(F)F)cc4)c(=O)[nH]n3)c2=O)c1 [Example 30, 3-chloro-5-((1-((5-(4-(difluoromethoxy)phenyl)-6-oxo-1,6-dihydropyridazin-3-yl)methyl)-6-oxo-4-(trifluoromethyl)-1,6-dihydropyrimidin-5-yl)oxy)benzonitrile]	4
N#Cc1cc(Cl)cc(Oc2c(C(F)(F)F)ncn(Cc3cc(-c4ccccc4)c(=O)[nH]n3)c2=O)c1 [Example 22]	3
N#Cc1cc(Cl)cc(Oc2c(C(F)(F)F)ncn(Cc3cc(-c4ccc(C#N)c(F)c4)n[nH]c3=O)c2=O)c1 [Example 122, 4-(5-((5-(3-chloro-5-cyanophenoxy)-6-oxo-4-(trifluoromethyl)pyrimidin-1(6H)-yl)methyl)-6-oxo-1,6-dihydropyridazin-3-yl)-2-fluorobenzonitrile]	6
N#Cc1cc(Cl)cc(Oc2c(C(F)(F)F)ncn(Cc3cc(-c4ccccc4F)c(=O)[nH]n3)c2=O)c1 [Example 25, 3-chloro-5-((1-((5-(2-fluorophenyl)-6-oxo-1,6-dihydropyridazin-3-yl)methyl)-6-oxo-4-(trifluoromethyl)-1,6-dihydropyrimidin-5-yl)oxy)benzonitrile]	9
N#Cc1cc(Cl)cc(Oc2c(C(F)(F)F)ncn(Cc3cc(-c4ccc(Cl)nc4)c(=O)[nH]n3)c2=O)c1 [Example 86, 3-chloro-5-((1-((5-(6-chloropyridin-3-yl)-6-oxo-1,6-dihydropyridazin-3-yl)methyl)-6-oxo-4-(trifluoromethyl)-1,6-dihydropyrimidin-5-yl)oxy)benzonitrile]	6
COC(=O)c1cc(Cn2cnc(C(F)(F)F)c(Oc3cc(Cl)cc(C#N)c3)c2=O)n[nH]c1=O [Example 100, methyl 6-((5-(3-chloro-5-cyanophenoxy)-6-oxo-4-(trifluoromethyl)pyrimidin-1(6H)-yl)methyl)-3-oxo-2,3-dihydropyridazine-4-carboxylate]	23
N#Cc1cc(Cl)cc(Oc2c(C(F)(F)F)ncn(Cc3cc(-c4ccc(Cl)cn4)c(=O)[nH]n3)c2=O)c1 [Example 99, 3-chloro-5-((1-((5-(5-chloropyridin-2-yl)-6-oxo-1,6-dihydropyridazin-3-yl)methyl)-6-oxo-4-(trifluoromethyl)-1,6-dihydropyrimidin-5-yl)oxy)benzonitrile]	7
CC(C)Oc1ccc(-c2cc(Cn3cnc(C(F)(F)F)c(Oc4cc(Cl)cc(C#N)c4)c3=O)n[nH]c2=O)cc1F [Example 32, 3-chloro-5-((1-((5-(3-fluoro-4-isopropoxyphenyl)-6-oxo-1,6-dihydropyridazin-3-yl)methyl)-6-oxo-4-(trifluoromethyl)-1,6-dihydropyrimidin-5-yl)oxy)benzonitrile]	13
CC(=O)c1cc(Cn2cnc(C(F)(F)F)c(Oc3cc(Cl)cc(C#N)c3)c2=O)n[nH]c1=O [Example 105, 3-((1-((5-acetyl-6-oxo-1,6-dihydropyridazin-3-yl)methyl)-6-oxo-4-(trifluoromethyl)-1,6-dihydropyrimidin-5-yl)oxy)-5-chlorobenzonitrile]	19
COc1cc(F)cc(-c2cc(Cn3cnc(C(F)(F)F)c(Oc4cc(Cl)cc(C#N)c4)c3=O)n[nH]c2=O)c1 [Example 61, 3-chloro-5-((1-((5-(3-fluoro-5-methoxyphenyl)-6-oxo-1,6-dihydropyridazin-3-yl)methyl)-6-oxo-4-(trifluoromethyl)-1,6-dihydropyrimidin-5-yl)oxy)benzonitrile]	11
Cn1cc(-c2cc(Cn3cnc(C(F)(F)F)c(Oc4cc(Cl)cc(C#N)c4)c3=O)n[nH]c2=O)cn1 [Example 72, 3-chloro-5-((1-((5-(1-methyl-1H-pyrazol-4-yl)-6-oxo-1,6-dihydropyridazin-3-yl)methyl)-6-oxo-4-(trifluoromethyl)-1,6-dihydropyrimidin-5-yl)oxy)benzonitrile]	7
N#Cc1cc(Cl)cc(Oc2c(C(F)(F)F)ncn(Cc3cc(-c4ccc(F)c(Cl)c4)c(=O)[nH]n3)c2=O)c1 [Example 34, 3-chloro-5-((1-((5-(3-chloro-4-fluorophenyl)-6-oxo-1,6-dihydropyridazin-3-yl)methyl)-6-oxo-4-(trifluoromethyl)-1,6-dihydropyrimidin-5-yl)oxy)benzonitrile]	7
N#Cc1cc(Cl)cc(Oc2c(C(F)(F)F)ncn(Cc3cc(C4CC4)c(=O)[nH]n3)c2=O)c1 [Example 66, 3-chloro-5-((1-((5-cyclopropyl-6-oxo-1,6-dihydropyridazin-3-yl)methyl)-6-oxo-4-(trifluoromethyl)-1,6-dihydropyrimidin-5-yl)oxy)benzonitrile]	7
N#Cc1cc(Cl)cc(Oc2c(C(F)(F)F)ncn(Cc3cc(-c4ccc(Cl)c(F)c4)n[nH]c3=O)c2=O)c1 [Example 123, 3-chloro-5-((1-((6-(4-chloro-3-fluorophenyl)-3-oxo-2,3-dihydropyridazin-4-yl)methyl)-6-oxo-4-(trifluoromethyl)-1,6-dihydropyrimidin-5-yl)oxy)benzonitrile]	6
CS(=O)(=O)c1ccc(-c2cc(Cn3cnc(C(F)(F)F)c(Oc4cc(Cl)cc(C#N)c4)c3=O)n[nH]c2=O)cc1 [Example 67, 3-chloro-5-((1-((5-(4-(methylsulfonyl)phenyl)-6-oxo-1,6-dihydropyridazin-3-yl)methyl)-6-oxo-4-(trifluoromethyl)-1,6-dihydropyrimidin-5-yl)oxy)benzonitrile]	12
N#Cc1cc(Cl)cc(Oc2c(C(F)(F)F)ncn(Cc3cc(-c4ccc(F)cc4Cl)c(=O)[nH]n3)c2=O)c1 [Example 40, 3-chloro-5-((1-((5-(2-chloro-4-fluorophenyl)-6-oxo-1,6-dihydropyridazin-3-yl)methyl)-6-oxo-4-(trifluoromethyl)-1,6-dihydropyrimidin-5-yl)oxy)benzonitrile]	70
CC(F)c1cc(Cn2cnc(C(F)(F)F)c(Oc3cc(Cl)cc(C#N)c3)c2=O)n[nH]c1=O (stereo not drawn) [Example 15, 3-chloro-5-((1-((5-(1-fluoroethyl)-6-oxo-1,6-dihydropyridazin-3-yl)methyl)-6-oxo-4-(trifluoromethyl)-1,6-dihydropyrimidin-5-yl)oxy)benzonitrile]	13
N#Cc1cc(Cl)cc(Oc2c(C(F)(F)F)ncn(Cc3cc(-c4cccc(F)c4F)n[nH]c3=O)c2=O)c1 [Example 120, 3-chloro-5-((1-((6-(2,3-difluorophenyl)-3-oxo-2,3-dihydropyridazin-4-yl)methyl)-6-oxo-4-(trifluoromethyl)-1,6-dihydropyrimidin-5-yl)oxy)benzonitrile]	3
N#Cc1cc(Cl)cc(Oc2c(C(F)(F)F)ncn(Cc3cc(-c4ccc(Cl)cc4)c(=O)[nH]n3)c2=O)c1 [Example 28, 3-chloro-5-((1-((5-(4-chlorophenyl)-6-oxo-1,6-dihydropyridazin-3-yl)methyl)-6-oxo-4-(trifluoromethyl)-1,6-dihydropyrimidin-5-yl)oxy)benzonitrile]	5
N#Cc1cc(Cl)cc(Oc2c(C(F)(F)F)ncn(Cc3cc(-c4ccc(F)cc4F)c(=O)[nH]n3)c2=O)c1 [Example 35, 3-chloro-5-((1-((5-(2,4-difluorophenyl)-6-oxo-1,6-dihydropyridazin-3-yl)methyl)-6-oxo-4-(trifluoromethyl)-1,6-dihydropyrimidin-5-yl)oxy)benzonitrile]	8
